In patent US11071738B2, “Therapeutic agent for fatty liver diseases and therapeutic agent for adiposity” (Hiroshima University, priority 2017, dated 2021):
Like-named read-outs stand apart in the source and are kept apart here.

Legend:
Pin1 = target: T1, Pin1 (Homo sapiens, UniProt Q13526); experiment: Cell-based Pin1 inhibition assay with AMPK phosphorylation level as index; parameters: key to Pin1 inhibition activity: +++: a higher level of AMPK phosphorylation is promoted, as compared with C1; ++: a similar level of AMPK phosphorylation is promoted, as compared with C1; +: a lower level of AMPK phosphorylation is promoted, as compared with C1; −: no or almost no promotion is found in AMPK phosphorylation; conditions: 293T cells, compound at 100 μM; for Pin1 inhibition activity: 10 mM 2-DG, pAMPK blot compared with C1
T1 construct: endogenous in cells; host or cells: 293T cells
T1 sequence (Q13526 whole entry): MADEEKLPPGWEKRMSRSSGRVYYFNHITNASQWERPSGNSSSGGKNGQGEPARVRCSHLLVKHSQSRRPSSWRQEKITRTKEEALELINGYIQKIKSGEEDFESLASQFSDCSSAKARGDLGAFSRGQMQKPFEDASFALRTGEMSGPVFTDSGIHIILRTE
Protocol: To evaluate the inhibitory activity of each synthesized compound against the function of Pin1, a cell-based assay was performed according to the method previously developed by the inventors (Yusuke Nakatsu et al., Journal of Biological Chemistry, 2015, Vol. 290, No. 40, pp. 24255-24266), in which the phosphorylation level of AMPK (AMP-activated protein kinase), a protein whose phosphorylation is inhibited by Pin1, was examined as an index.
Briefly, 293T cells were plated on a collagen-coated 24-well plate. Forty-eight hours later, each compound synthesized in the preceding example (at 100 μM) was added to the plate, and the plate was left to stand in an incubator for 30 minutes. Subsequently, 10 mM 2-DG was added to the plate, and one hour later, each sample was collected with a buffer containing mercaptoethanol and SDS.
SDS-PAGE and blotting were performed, and blocking was then performed with 3% BSA for 1 hour, according to conventional protocols. Subsequently, a pAMPK antibody (Cell Signaling; diluted 1:2000 in Can Get Signal Solution 1, Toyobo) as a primary antibody, and an HRP-linked anti rabbit IgG (GE Healthcare; diluted 1:4000 in Can Get Signal Solution 2, Toyobo) as a secondary antibody were allowed to react at ambient temperature for 1 hour prior to detection.
The inhibitory activity against the function of Pin1 was evaluated by comparing the inhibition levels between each compound and a known Pin1 inhibitor, C1, as indicated below: […]

NASH mice (MCDD) = experiment: NASH treatment study in mice fed a methionine-choline-deficient diet (MCDD); type: in vivo, mice (C57BL/6J); conditions: NASH mice given MCDD, i.p. 2.5 mg/kg/day three times a week
Protocol: Next, an animal experiment was performed on NASH mice that were produced by feeding a methionine-choline-deficient diet (MCDD).

NASH model mice (HFDT) = conditions: for blood ALT (GPT) value, index of liver inflammation / fasting blood glucose level / increase in liver weight / death of mice: HFDT NASH mice; for blood ALT (GPT) value, index of liver inflammation / fasting blood glucose level / increase in liver weight: 8 weeks
Protocol: Animal experiments were performed using non-alcoholic steatohepatitis (NASH) model mice to test the compounds synthesized in Examples for the therapeutic effect on NASH.
NASH model mice (hereinafter referred to as “NASH mice”) were produced by feeding a high-fat diet containing trans fatty acids (HFDT) to individual male laboratory mice (C57BL/6J) for 8 weeks. […] In addition, a normal diet was given to individual male laboratory mice (C57BL/6J) for 8 weeks to prepare control mice.

[1] = i.p. 2.5 mg/kg/day or oral 5.0 mg/kg/day three times a week
[2] = oral 5.0 mg/kg/day three times a week

Pin1 inhibition activity (Pin1) | SMILES | other results
+ | Cc1cc(C)cc(C(=O)O[C@H](Cc2ccc3ccccc3c2)C(=O)O)c1 [Compound H-210] | –
+ | O=C(Cc1ccc2ccccc2c1)O[C@H](Cc1ccc2ccccc2c1)C(=O)O [Compound H-149] | –
+ | O=C(O[C@H](Cc1ccc2ccccc2c1)C(=O)O)c1ccc(F)c(F)c1 [Compound H-270] | –
++ | O=C(O)[C@@H](Cc1ccc2ccccc2c1)NC(=O)n1c2ccccc2c2ccccc21 [Compound H-163] | fat accumulation in liver tissue (microscopic observation) (NASH mice (MCDD); 8 weeks): reduced; hepatic fibrosis (Azan staining) (NASH mice (MCDD); 8 weeks): significantly inhibited; Collagen 1a1 mRNA expression level (NASH mice (MCDD)): reduced; Collagen 1a2 mRNA expression level (NASH mice (MCDD)): reduced; SMA mRNA expression level (NASH mice (MCDD)): reduced; blood ALT (GPT) value, index of liver inflammation (NASH model mice (HFDT); [1]): decreased; fasting blood glucose level (NASH model mice (HFDT); [1]): no significant abnormality; increase in liver weight (NASH model mice (HFDT); [1]): significantly reduced; fat accumulation in liver tissue (microscopic observation) (NASH model mice (HFDT); NASH mice given HFDT): significantly reduced
– | O=C1C=CC(=O)c2c(O)cccc21 [Juglone, reference compound] | fasting blood glucose level (NASH model mice (HFDT); [2]): abnormal increase; increase in liver weight (NASH model mice (HFDT); [2]): significantly reduced; death of mice (NASH model mice (HFDT); i.p. 2.5 mg/kg/day three times a week): all dead within 8 weeks; death of mice (NASH model mice (HFDT); [2]): not dead
++ | O=C(COc1ccccc1)O[C@H](Cc1ccc2ccccc2c1)C(=O)O [Compound H-176] | –
+ | CN(C)c1ccc(C(=O)O[C@H](Cc2ccc3ccccc3c2)C(=O)O)cc1 [Compound H-212] | –
+ | O=C(O[C@H](Cc1ccc2ccccc2c1)C(=O)O)c1ccc(Cl)c(Cl)c1 [Compound H-269] | –
++ | O=C(O[C@H](Cc1ccc2ccccc2c1)C(=O)O)c1ccc(C(O)c2ccccc2)cc1 (some centres unmarked) [Compound H-23] | –
– | COC(=O)[C@@H](Cc1ccc2ccccc2c1)NC(=O)n1c2ccccc2c2ccccc21 [Compound H-144] | blood ALT (GPT) value, index of liver inflammation (NASH model mice (HFDT); [1]): decreased; fasting blood glucose level (NASH model mice (HFDT); [1]): no significant abnormality; increase in liver weight (NASH model mice (HFDT); [1]): significantly reduced
+ | Cc1ccc(C(=O)O[C@H](Cc2ccc3ccccc3c2)C(=O)O)cc1C [Compound H-265] | –
++ | O=C(O[C@H](Cc1ccc2ccccc2c1)C(=O)O)c1ccc(Oc2ccccc2)cc1 [Compound H-123] | –
++ | O=C(O[C@H](Cc1ccc2ccccc2c1)C(=O)O)c1ccc2ccccc2c1 [Compound H-30] | –
+ | O=C(Cn1c2ccccc2c2ccccc21)N[C@H](Cc1ccc2ccccc2c1)C(=O)O [Compound H-536] | –
+++ | O=C(O)[C@@H](Cc1ccc2ccccc2c1)NC(=O)N1c2ccccc2CCc2ccccc21 [Compound H-178] | –
+ | COC(=O)[C@@H](Cc1ccc2ccccc2c1)NC(=O)CN1c2ccccc2C2C=CC=CC21 (some centres unmarked) [Compound H-521] | –
++ | O=C(Nc1ccc(C(=O)c2ccccc2)cc1)N[C@H](Cc1ccc2ccccc2c1)C(=O)O [Compound H-341] | –
+ | O=C(O[C@H](Cc1ccc2ccccc2c1)C(=O)O)c1ccccc1Oc1ccccc1 [Compound H-132] | –
+++ | O=C(O[C@@H](Cc1ccc2ccccc2c1)C(=O)O)C1c2ccccc2-c2ccccc21 [Compound H-141] | –
++ | O=C(COc1ccc2ccccc2c1)O[C@H](Cc1ccc2ccccc2c1)C(=O)O [Compound H-177] | –
+ | COc1ccc(-c2cc(C(=O)O[C@H](Cc3ccc4ccccc4c3)C(=O)O)c(C)o2)cc1 [Compound H-32] | –
+ | O=C(O[C@H](Cc1ccc2ccccc2c1)C(=O)O)c1cc(Cl)cc(Cl)c1 [Compound H-200] | –

Pin1 inhibition activity (Pin1) | SMILES | other results
+ | O=C(O)[C@@H](Cc1ccc2ccccc2c1)NC(=O)N1c2ccccc2C=Cc2ccccc21 [Compound H-164] | –
++ | O=C(CC1c2ccccc2-c2ccccc21)O[C@H](Cc1ccc2ccccc2c1)C(=O)O [Compound H-106] | –
+ | COc1ccc(C(=O)O[C@H](Cc2ccc3ccccc3c2)C(=O)O)cc1OC [Compound H-266] | –
+ | COc1cc(OC)cc(C(=O)O[C@H](Cc2ccc3ccccc3c2)C(=O)O)c1 [Compound H-198] | –
+++ | O=C(CC1c2ccccc2-c2ccccc21)N[C@H](Cc1ccc2ccccc2c1)C(=O)O [Compound H-103] | –
++ | O=C(O[C@H](Cc1ccc2ccccc2c1)C(=O)O)C(c1ccccc1)c1ccccc1 [Compound H-134] | –
++ | O=C(Cc1c[nH]c2ccccc12)O[C@H](Cc1ccc2ccccc2c1)C(=O)O [Compound H-180] | –
++ | O=C(O[C@H](Cc1ccc2ccccc2c1)C(=O)O)c1cccc(Oc2ccccc2)c1 [Compound H-130] | –
+++ | O=C(COc1cccc2ccccc12)O[C@H](Cc1ccc2ccccc2c1)C(=O)O [Compound H-179] | –
++ | O=C(Cc1ccc2ccccc2c1)N[C@H](Cc1ccc2ccccc2c1)C(=O)O [Compound H-158] | –
+++ | O=C(Nc1ccccc1Oc1ccccc1)N[C@H](Cc1ccc2ccccc2c1)C(=O)O [Compound H-334] | –
++ | O=C(O)[C@@H](Cc1ccc2ccccc2c1)OC(=O)N1c2ccccc2Oc2ccccc21 [Compound H-157] | –
++ | O=C(O)[C@@H](Cc1ccc2ccccc2c1)NC(=O)N1c2ccccc2Oc2ccccc21 [Compound H-162] | –
+++ | O=C(O)[C@@H](Cc1ccc2ccccc2c1)OC(=O)n1c2ccccc2c2ccccc21 [Compound H-175] | –
+++ | O=C(O[C@H](Cc1ccc2ccccc2c1)C(=O)O)C1c2ccccc2-c2ccccc21 [Compound H-31] | hepatic fibrosis (Azan staining) (NASH mice (MCDD); 8 weeks): significantly inhibited; Collagen 1a1 mRNA expression level (NASH mice (MCDD)): reduced; Collagen 1a2 mRNA expression level (NASH mice (MCDD)): reduced; SMA mRNA expression level (NASH mice (MCDD)): reduced
++ | O=C(Cc1cccc2ccccc12)O[C@H](Cc1ccc2ccccc2c1)C(=O)O [Compound H-151] | –
+ | COC(=O)c1ccc2cc(C(=O)N[C@H](Cc3ccc4ccccc4c3)C(=O)O)ccc2c1 [Compound H-62] | –
+ | CC(C)(C)OC(=O)N[C@@H](Cc1ccccc1)C(=O)O[C@H](Cc1ccc2ccccc2c1)C(=O)O [Compound H-248] | –
+ | O=C(O[C@H](Cc1ccc2ccccc2c1)C(=O)O)c1ccc(-c2ccccc2)cc1 [Compound H-33] | –
++ | O=C(O)[C@@H](Cc1ccc2ccccc2c1)NC(=O)N(c1ccccc1)c1ccccc1 [Compound H-161] | –
+++ | O=C(N[C@H](Cc1ccc2ccccc2c1)C(=O)O)C1c2ccccc2-c2ccccc21 [Compound H-109] | –

SMILES | Pin1 inhibition activity (Pin1) | other results
O=C(O[C@H](Cc1ccc2ccccc2c1)C(=O)OCc1ccccc1)c1ccc2ccccc2c1 [Compound H-21] | − (Hydrolysis causes conversion to H-30, which is active) | –
O=C(N[C@H](Cc1ccc2ccccc2c1)C(=O)OCc1ccccc1)C1c2ccccc2-c2ccccc21 [Compound H-105] | − (Hydrolysis causes conversion to H-109, which is active) | Pin1 inhibition activity (in words) (Pin1; cell-based assay): no Pin1 inhibition activity
O=C(O)[C@@H](Cc1ccc2ccccc2c1)NC(=O)C1(O)c2ccccc2-c2ccccc21 [Compound H-101] | ++ | –
